Test results: patent US10981917B2, “Heterocyclic compound, its preparation method, and pharmaceutical composition comprising the same” (Daewoong Pharmaceutical Co., Ltd., priority 2017, dated 2021)

Biological target: PRS (prolyl-tRNA synthetase) protein, PRS portion of EPRS (Homo sapiens (Human), UniProt P07814)
Assay: PRS enzyme activity inhibition experiment ([3H]proline, liquid scintillation)
Assay type: biochemical
Settings: purified PRS protein, 37° C. for 5 to 10 minutes
Experimental: In order to confirm the biological activities of the compounds prepared in Examples, % inhibition or IC50 values of PRS enzyme ([…]) activities were calculated.
Specifically, the portion corresponding to PRS in cDNA of EPRS was subcloned, and the obtained high-purity PRS protein was purified and used in the experiment. The compounds (1 μM) prepared in Examples were added into the reaction buffer (20 mM KPO4 (pH 7.4), 6 mM MgAc, 5 mM ATP, […] tRNA, 0.5 mM DTT, […][^3H]proline (1 mCi/mL)) and allowed to react at 37° C. for 5 to 10 minutes. The reaction was terminated with 3M paper that was in advance dried by addition of 5% TCA. The radioactivity was measured using a liquid scintillation counter.
% Inhibition and IC50 values of the respective compounds were calculated and analyzed using Microsoft Excel or Sigma Plot 8.0. In Tables 1 to 3, the results are divided into A, B and C according to the range of IC50. The case where the derived IC50 is 100 nM or less is represented by “A”, the case where the IC50 is 100 to 500 nM is represented by “B”, and the case where the IC50 is 500 nM or higher is represented by “C”.

PRS (prolyl-tRNA synthetase) protein, PRS portion of EPRS, sequence (P07814 1007-1512): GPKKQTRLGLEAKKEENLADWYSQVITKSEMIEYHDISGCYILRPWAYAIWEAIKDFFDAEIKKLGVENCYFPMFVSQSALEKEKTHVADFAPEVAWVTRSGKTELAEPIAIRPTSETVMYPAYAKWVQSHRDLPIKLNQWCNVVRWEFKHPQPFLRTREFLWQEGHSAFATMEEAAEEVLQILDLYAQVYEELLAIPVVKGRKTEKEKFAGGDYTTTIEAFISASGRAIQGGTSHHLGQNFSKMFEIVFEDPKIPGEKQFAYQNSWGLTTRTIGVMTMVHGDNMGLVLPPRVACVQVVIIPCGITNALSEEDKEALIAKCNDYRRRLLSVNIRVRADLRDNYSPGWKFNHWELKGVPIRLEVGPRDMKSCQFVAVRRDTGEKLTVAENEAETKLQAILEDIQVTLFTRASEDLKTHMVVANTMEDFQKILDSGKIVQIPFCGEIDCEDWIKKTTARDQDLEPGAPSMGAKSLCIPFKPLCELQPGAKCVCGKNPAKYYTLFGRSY

Row | SMILES | IC50 [nM]
1 | O=c1[nH]c2cc(Br)ccc2n1CCC[C@H]1NCCC[C@@H]1O [Example 160, 5-bromo-1-(3-((2R,3S)-3-hydroxypiperidin-2-yl)propyl)-1H-benzo[d]imidazol-2(3H)-one] | ≥ 500
2 | O=[N+]([O-])c1c(Br)ccc2c1ncn2C/C=C/[C@H]1NCCC[C@@H]1O [Example 176, (2R,3S)-2-((E)-3-(5-bromo-4-nitro-1H-benzo[d]imidazol-1-yl)prop-1-en-1-yl)piperidin-3-ol] | ≥ 500
3 | OCc1nc2cc(Cl)c(Cl)cc2n1C/C(F)=C/[C@H]1NCCC[C@@H]1O [Example 220, (2R,3S)-2-((Z)-3-(5,6-dichloro-2-(hydroxymethyl)-1H-benzo[d]imidazol-1-yl)-2-fluoroprop-1-en-1-yl)piperidin-3-ol] | ≥ 500
4 | O[C@H]1CCCN[C@@H]1CCCn1cnc2c(N3CCCC3)ncnc21 [Example 142, (2R,3S)-2-(3-(6-(pyrrolidin-1-yl)-9H-purin-9-yl)propyl)piperidin-3-ol] | ≥ 500
5 | O[C@H]1CCCN[C@@H]1C#CCn1cnc2cc(Cl)c(Cl)cc21 [Example 225, (2R,3S)-2-(3-(5,6-dichloro-1H-benzo[d]imidazol-1-yl)prop-1-yn-1-yl)piperidin-3-ol] | ≥ 500
6 | N#Cc1nc(-c2cc(Cl)cc3ncn(CCC[C@H]4NCCC[C@@H]4O)c23)cs1 [Example 105, 4-(5-chloro-1-(3-((2R,3S)-3-hydroxypiperidin-2-yl)propyl)-1H-benzo[d]imidazol-7-yl)thiazole-2-carbonitrile] | ≥ 500
7 | O[C@H]1CCCN[C@@H]1/C=C/Cn1ncc2cc(Cl)cnc21 [Example 200, (2R,3S)-2-((E)-3-(5-chloro-1H-pyrazolo[3,4-b]pyridin-1-yl)prop-1-en-1-yl)piperidin-3-ol] | ≥ 500
8 | Cn1c(=O)[nH]c(=O)c2c1ncn2CCC[C@H]1NCCC[C@@H]1O [Example 163, 7-(3-((2R,3S)-3-hydroxypiperidin-2-yl)propyl)-3-methyl-1H-purine-2,6(3H,7H)-dione] | ≥ 500
9 | Cc1c(F)ccc2c1ncn2CC#C[C@H]1NCCC[C@@H]1O [Example 229, (2R,3S)-2-(3-(5-fluoro-4-methyl-1H-benzo[d]imidazol-1-yl)prop-1-yn-1-yl)piperidin-3-ol] | ≥ 500
10 | O=[N+]([O-])c1c(Br)ccc2ncn(CCC[C@H]3NCCC[C@@H]3O)c12 [Example 76, (2R,3S)-2-(3-(6-bromo-7-nitro-1H-benzo[d]imidazol-1-yl)propyl)piperidin-3-ol] | ≥ 500
11 | C/C(=C\[C@H]1NCCC[C@@H]1O)Cn1cnc2cc(Cl)c(Cl)cc21 [Example 223, (2R,3S)-2-((E)-3-(5,6-dichloro-1H-benzo[d]imidazol-1-yl)-2-methylprop-1-en-1-yl)piperidin-3-ol] | ≥ 500
12 | Cn1c(=O)n(CCC[C@H]2NCCC[C@@H]2O)c2ccccc21 [Example 159, 1-(3-((2R,3S)-3-hydroxypiperidin-2-yl)propyl)-3-methyl-1H-benzo[d]imidazol-2(3H)-one] | ≥ 500
13 | O[C@H]1CCCN[C@@H]1CCCn1cnc2ccc(F)cc21 [Example 8, (2R,3S)-2-(3-(6-fluoro-1H-benzo[d]imidazol-1-yl)propyl)piperidin-3-ol] | ≥ 500
14 | COC(=O)c1cn(C/C=C/[C@H]2NCCC[C@@H]2O)c2ccc(Br)cc12 [Example 213, methyl 5-bromo-1-((E)-3-((2R,3S)-3-hydroxypiperidin-2-yl)allyl)-1H-indole-3-carboxylate] | ≥ 500
15 | Cc1nc2cc(Br)c(F)c(F)c2n1C/C=C/[C@H]1NCCC[C@@H]1O [Example 193, (2R,3S)-2-((E)-3-(5-bromo-6,7-difluoro-2-methyl-1H-benzo[d]imidazol-1-yl)prop-1-en-1-yl)piperidin-3-ol] | ≥ 500
16 | O=[N+]([O-])c1c(Br)ccc2ncn(C/C=C/[C@H]3NCCC[C@@H]3O)c12 [Example 177, (2R,3S)-2-((E)-3-(6-bromo-7-nitro-1H-benzo[d]imidazol-1-yl)prop-1-en-1-yl)piperidin-3-ol] | ≥ 500

Continued, values first:

Row | IC50 [nM] | SMILES
17 | ≤ 100 | O[C@H]1CCCN[C@@H]1CCCn1cnc2cc(F)cc(F)c21 [Example 58, (2R,3S)-2-(3-(5,7-difluoro-1H-benzo[d]imidazol-1-yl)propyl)piperidin-3-ol]
18 | ≥ 500 | Cn1cncc1-c1cc(Cl)cc2ncn(CCC[C@H]3NCCC[C@@H]3O)c12 [Example 96, (2R,3S)-2-(3-(5-chloro-7-(1-methyl-1H-imidazol-5-yl)-1H-benzo[d]imidazol-1-yl)propyl)piperidin-3-ol]
19 | 100 to 500 | O[C@H]1CCCN[C@@H]1CCCn1cnc2nc(Cl)c(Cl)cc21 [Example 127, (2R,3S)-2-(3-(5,6-dichloro-1H-imidazo[4,5-b]pyridin-1-yl)propyl)piperidin-3-ol]
20 | 100 to 500 | CC(C)n1cc(-c2cc(Cl)cc3ncn(CCC[C@H]4NCCC[C@@H]4O)c23)cn1 [Example 108, (2R,3S)-2-(3-(5-chloro-7-(1-isopropyl-1H-pyrazol-4-yl)-1H-benzo[d]imidazol-1-yl)propyl)piperidin-3-ol]
21 | 100 to 500 | O=[N+]([O-])c1ccc2c(ncn2C/C=C/[C@H]2NCCC[C@@H]2O)c1Cl [Example 178, (2R,3S)-2-((E)-3-(4-chloro-5-nitro-1H-benzo[d]imidazol-1-yl)prop-1-en-1-yl)piperidin-3-ol]
22 | 100 to 500 | CC(C)(C)n1cc(-c2cc(Cl)cc3ncn(CCC[C@H]4NCCC[C@@H]4O)c23)cn1 [Example 106, (2R,3S)-2-(3-(7-(1-(tert-butyl)-1H-pyrazol-4-yl)-5-chloro-1H-benzo[d]imidazol-1-yl)propyl)piperidin-3-ol]
23 | 100 to 500 | O[C@H]1CCCN[C@@H]1CCCn1cnc2cc(Br)c(F)cc21 [Example 35, (2R,3S)-2-(3-(5-bromo-6-fluoro-1H-benzo[d]imidazol-1-yl)propyl)piperidin-3-ol]
24 | 100 to 500 | O[C@H]1CCCN[C@@H]1CCCn1cnc2cc(F)c(F)cc21 [Example 52, (2R,3S)-2-(3-(5,6-difluoro-1H-benzo[d]imidazol-1-yl)propyl)piperidin-3-ol]
25 | 100 to 500 | O[C@H]1CCCN[C@@H]1CCCn1cnc2cccc(-c3cn[nH]c3)c21 [Example 31, (2R,3S)-2-(3-(7-(1H-pyrazol-4-yl)-1H-benzo[d]imidazol-1-yl)propyl)piperidin-3-ol]
26 | 100 to 500 | O[C@H]1CCCN[C@@H]1CCCn1cnc2cc(F)c(Br)cc21 [Example 33, (2R,3S)-2-(3-(6-bromo-5-fluoro-1H-benzo[d]imidazol-1-yl)propyl)piperidin-3-ol]
27 | ≤ 100 | O[C@H]1CCCN[C@@H]1CCCn1cnc2cc(Cl)cc(-c3ccsc3)c21 [Example 91, (2R,3S)-2-(3-(5-chloro-7-(thiophen-3-yl)-1H-benzo[d]imidazol-1-yl)propyl)piperidin-3-ol]
28 | ≤ 100 | Cn1cc(-c2cc(Cl)cc3ncn(CCC[C@H]4NCCC[C@@H]4O)c23)cn1 [Example 97, (2R,3S)-2-(3-(5-chloro-7-(1-methyl-1H-pyrazol-4-yl)-1H-benzo[d]imidazol-1-yl)propyl)piperidin-3-ol]
29 | 100 to 500 | O[C@H]1CCCN[C@@H]1/C=C/Cn1cnc2c(F)cc(F)cc21 [Example 179, (2R,3S)-2-((E)-3-(4,6-difluoro-1H-benzo[d]imidazol-1-yl)prop-1-en-1-yl)piperidin-3-ol]
30 | 100 to 500 | O[C@H]1CCCN[C@@H]1CCCn1cnc2c(F)c(Br)ccc21 [Example 47, (2R,3S)-2-(3-(5-bromo-4-fluoro-1H-benzo[d]imidazol-1-yl)propyl)piperidin-3-ol]
31 | 100 to 500 | O[C@H]1CCCN[C@@H]1/C=C/Cn1cnc2c(Cl)c(Cl)cnc21 [Example 189, (2R,3S)-2-((E)-3-(6,7-dichloro-3H-imidazo[4,5-b]pyridin-3-yl)prop-1-en-1-yl)piperidin-3-ol]
32 | 100 to 500 | COc1ccc2c(ncn2CCC[C@H]2NCCC[C@@H]2O)c1Cl [Example 59, (2R,3S)-2-(3-(4-chloro-5-methoxy-1H-benzo[d]imidazol-1-yl)propyl)piperidin-3-ol]
33 | 100 to 500 | Cc1c(F)ccc2c1ncn2C/C=C/[C@H]1NCCC[C@@H]1O [Example 167, (2R,3S)-2-((E)-3-(5-fluoro-4-methyl-1H-benzo[d]imidazol-1-yl)prop-1-enyl)piperidin-3-ol]
34 | 100 to 500 | O[C@H]1CCCN[C@@H]1CCCn1cnc2c(Cl)c(Cl)cnc21 [Example 130, (2R,3S)-2-(3-(6,7-dichloro-3H-imidazo[4,5-b]pyridin-3-yl)propyl)piperidin-3-ol]
35 | ≤ 100 | O[C@H]1CCCN[C@@H]1/C=C/Cn1cnc2c(Cl)c(Br)cnc21 [Example 187, (2R,3S)-2-((E)-3-(6-bromo-7-chloro-3H-imidazo[4,5-b]pyridin-3-yl)prop-1l-en-1-yl)piperidin-3-ol]
36 | 100 to 500 | O[C@H]1CCCN[C@@H]1CCCn1cnc2cccc(N3CCCC3)c21 [Example 98, (2R,3S)-2-(3-(7-(pyrrolidin-1-yl)-1H-benzo[d]imidazol-1-yl)propyl)piperidin-3-ol]
37 | 100 to 500 | O[C@H]1CCCN[C@@H]1CCCn1cnc2cc(F)c(Cl)cc21 [Example 32, (2R,3S)-2-(3-(6-chloro-5-fluoro-1H-benzo[d]imidazol-1-yl)propyl)piperidin-3-ol]
38 | 100 to 500 | O[C@H]1CCCN[C@@H]1CCCn1cnc2cc(Cl)cc(C3=CCOCC3)c21 [Example 94, (2R,3S)-2-(3-(5-chloro-7-(3,6-dihydro-2H-pyran-4-yl)-1H-benzo[d]imidazol-1-yl)propyl)piperidin-3-ol]
